Assay results taken from patent US9745283B2, “Uracil derivatives as AXL and c-MET kinase inhibitors” (priority 2011, dated 2017).

Molecular target: recombinant human baculovirus-expressed cMET (Homo sapiens (Human), UniProt P08581)
Assay: C-MET Kinase Assay (HTRF KinEASE)
Assay type: biochemical
Settings: average of two or more determinations; read-out: c-MET IC50
Protocol: The cMET kinase assay was performed in 384-well Fluotrac™ 200 HiBase microplates using the HTRF KinEASE™ assay described above for AXL except that the assay volume was reduced to half. Enzyme concentration was 8 ng/mL of recombinant human baculovirus-expressed cMET while the substrate concentrations were 0.1 μM and 0.02 μM for the biotinylated peptide and ATP, respectively. Instead of the Multidrop Combi, the BioRAPTR® FRD microfluidic workstation (Beckman Coulter, Brea, Calif.) was utilized for reagent additions.
Inhibition curves for compounds were generated by plotting percent control activity versus log 10 of the concentration of compound. IC50 values were calculated by nonlinear regression using the sigmoidal dose-response (variable slope) equation in GraphPad Prism as follows: y=bottom+(top−bottom)/(1+10(log IC50−x)*Hill Slope) where y is the % kinase activity at a given concentration of compound, x is the logarithm of the concentration of compound, bottom is the % of control kinase activity at the highest compound concentration tested, and top is the % of control kinase activity at the lowest compound concentration examined. The values for bottom and top were fixed at 0 and 100, respectively.

| SMILES | IC50 |
| --- | --- |
| CCC#CCn1c(=O)c(C(=O)Nc2ccc(Oc3ccnc4cc(OC)c(OC)cc34)c(F)c2)nn(C)c1=O [Example 117, 2-Methyl-3,5-dioxo-4-pent-2-ynyl-2,3,4,5-tetrahydro-[1,2,4]triazine-6-carboxylic acid [4-(6,7-dimethoxy-uinolin-4-yloxy)-3-fluoro-phenyl]-amide] | 101 to 1000 nM |
| CCn1cc(C(=O)Nc2ccc(Sc3ccnc4cc(OC)c(OC)cc34)cc2)c(=O)n(-c2ccc(F)cc2)c1=O [Example 137, 1-Ethyl-3-(4-fluorophenyl)-2,4-dioxo-1,2,3,4-tetrahydro-pyrimidine-5-carboxylic acid [4-(6,7-dimethoxy-quinolin-4-ylsulfanyl)-phenyl]-amide] | 10 to 100 nM |
| COc1cc2ncnc(Oc3ccc(NC(=O)c4cn(C(C)C)c(=O)n(-c5ccc(F)cc5)c4=O)cc3)c2cc1OC [Example 141, 3-(4-Fluoro-phenyl)-1-isopropyl-2,4-dioxo-1,2,3,4-tetrahydro-pyrimidine-5-carboxylic acid [4-(6,7-dimethoxy-quinazolin-4-yloxy)-phenyl]-amide] | 10 to 100 nM |
| CCn1cc(C(=O)Nc2ccc(Oc3ccnc4cc(OC)c(OC)cc34)c(C3CC3)c2)c(=O)n(-c2ccc(F)cc2)c1=O [Example 59, 1-Ethyl-3-(4-fluoro-phenyl)-2,4-dioxo-1,2,3,4-tetrahydropyrimidine-5-carboxylic acid [3-cyclopropyl-4-(6,7-dimethoxy-quinolin-4-yloxy)-phenyl]-amide] | 10 to 100 nM |
| COc1cc2c(Oc3ccc(NC(=O)c4cn(C(C)C)c(=O)n(-c5ccc(F)cc5)c4=O)cc3F)ccnc2cc1OCc1ccccc1 [Example 41, 3-(4-Fluorophenyl)-1-isopropyl-2,4-dioxo-1,2,3,4-tetrahydropyrimidine-5-carboxylic acid [4-(7-benzyloxy-6-methoxyquinolin-4-yloxy)-3-fluorophenyl]-amide] | 101 to 1000 nM |
| CCOc1cc2nccc(Oc3ccc(NC(=O)c4cn(C(C)C)c(=O)n(-c5ccc(F)cc5)c4=O)cc3F)c2cc1OCC [Example 37, 3-(4-Fluorophenyl)-1-isopropyl-2,4-dioxo-1,2,3,4-tetrahydropyrimidine-5-carboxylic acid [4-(6,7-diethoxyquinolin-4-yloxy)-3-fluoro-phenyl]-amide] | 101 to 1000 nM |
| COc1cc2nccc(Oc3ccc(NC(=O)c4nn(C)c(=O)n(Cc5cc(C)on5)c4=O)cc3F)c2cc1OC [Example 116, 2-Methyl-4-(5-methyl-isoxazol-3-ylmethyl)-3,5-dioxo-2,3,4,5-tetrahydro-[1,2,4]triazine-6-carboxylic acid [4-(6,7-dimethoxy-quinolin-4-yloxy)-3-fluoro-phenyl]-amide] | 10 to 100 nM |
| COc1cc2nccc(Oc3ccc(NC(=O)c4cn(CCOC(C)C)c(=O)n(-c5ccc(F)cc5)c4=O)cc3F)c2cc1OC [Example 12, 3-(4-Fluorophenyl)-1-(2-isopropoxyethyl)-2,4-dioxo-1,2,3,4-tetrahydropyrimidine-5-carboxylic acid [4-(6,7-dimethoxyquinolin-4-yloxy)-3-fluorophenyl]-amide] | 10 to 100 nM |
| COc1cc2nccc(Oc3ccc(NC(=O)c4cn(C(C)C)c(=O)n(-c5ccc(F)cc5)c4=O)cc3C(C)C)c2cc1OC [Example 156, 3-(4-Fluoro-phenyl)-1-isopropyl-2,4-dioxo-1,2,3,4-tetrahydro-pyrimidine-5-carboxylic acid [4-(6,7-dimethoxy-quinolin-4-yloxy)-3-isopropyl-phenyl]-amide] | 10 to 100 nM |
| CCn1cc(C(=O)Nc2cc(C)c(Oc3ccnc4cc(OC)c(OC)cc34)c(C)c2)c(=O)n(-c2ccc(F)cc2)c1=O [Example 161, 1-Ethyl-3-(4-fluoro-phenyl)-2,4-dioxo-1,2,3,4-tetrahydro-pyrimidine-5-carboxylic acid [4-(6,7-dimethoxy-quinolin-4-yloxy)-3,5-dimethyl-phenyl]-amide] | 10 to 100 nM |
| COc1cc2nccc(Oc3ccc(NC(=O)c4nn(C)c(=O)n(CCn5cccn5)c4=O)cc3F)c2cc1OC [Example 120, 2-Methyl-3,5-dioxo-4-(2-pyrazol-1-yl-ethyl)-2,3,4,5-tetrahydro-[1,2,4]triazine-6-carboxylic acid [4-(6,7-dimethoxyquinolin-4-yloxy)-3-fluorophenyl]-amide] | 10 to 100 nM |
| COc1cc2nccc(Oc3ccc(NC(=O)c4nn(C)c(=O)[nH]c4=O)cc3F)c2cc1OC [Example 114, 2-Methyl-3,5-dioxo-2,3,4,5-tetrahydro-[1,2,4]triazine-6-carboxylic acid [4-(6,7-dimethoxy-quinolin-4-yloxy)-3-fluoro-phenyl]-amide] | 10 to 100 nM |
| COc1cc2nccc(Oc3ccc(NC(=O)c4cn(C(C(C)=O)C(=O)N(C)C)c(=O)n(-c5ccc(F)cc5)c4=O)cc3F)c2cc1OC (centres unmarked) [Example 84, 1-(1-Dimethylcarbamoyl-2-oxo-propyl)-3-(4-fluoro-phenyl)-2,4-dioxo-1,2,3,4-tetrahydro-pyrimidine-5-carboxylic acid [4-(6,7-dimethoxy-quinolin-4-yloxy)-3-fluoro-phenyl]-amide] | 10 to 100 nM |
| CCn1cc(C(=O)Nc2ccc(Oc3ccnc4cc(OC)c(OC)cc34)c(Cl)c2)c(=O)n(-c2ccc(F)cc2)c1=O [Example 152] | 10 to 100 nM |
| CCn1cc(C(=O)Nc2ccc(Oc3ccnc4cc(OCCOC)c(OC)cc34)c(F)c2)c(=O)n(-c2ccc(F)cc2)c1=O [Example 44, 1-Ethyl-3-(4-fluorophenyl)-2,4-dioxo-1,2,3,4-tetrahydropyrimidine-5-carboxylic acid {3-fluoro-4-[6-methoxy-7-(2-methoxyethoxy)quinolin-4-yloxy]-phenyl}-amide] | 10 to 100 nM |
| C#CCn1cc(C(=O)Nc2ccc(Oc3ccnc4cc(OC)c(OC)cc34)c(F)c2)c(=O)n(CC#C)c1=O [Example 98, 2,4-Dioxo-1,3-di-prop-2-ynyl-1,2,3,4-tetrahydro-pyrimidine-5-carboxylic acid [4-(6,7-dimethoxy-quinolin-4-yloxy)-3-fluoro-phenyl]-amide] | 10 to 100 nM |
| COc1cc2nccc(Sc3ccc(NC(=O)c4cn(C(C)C)c(=O)n(-c5ccc(F)cc5)c4=O)cc3)c2cc1OC [Example 138, 3-(4-Fluoro-phenyl)-1-isopropyl-2,4-dioxo-1,2,3,4-tetrahydro-pyrimidine-5-carboxylic acid [4-(6,7-dimethoxy-quinolin-4-ylsulfanyl)-phenyl]-amide] | 10 to 100 nM |
| CCn1nc(C(=O)Nc2ccc(Oc3ccnc4cc(OC)c(OC)cc34)cn2)c(=O)n(-c2ccc(F)cc2)c1=O [Example 164, 2-Ethyl-4-(4-fluoro-phenyl)-3,5-dioxo-2,3,4,5-tetrahydro-1,2,4-triazine-6-carboxylic acid [5-(6,7-dimethoxy-quinolin-4-yloxy)-pyridin-2-yl]-amide] | 10 to 100 nM |
| COc1cc2nccc(Nc3ccc(NC(=O)c4nn(C(C)C)c(=O)n(-c5ccc(F)cc5)c4=O)cc3)c2cc1OC [Example 136, 4-(4-Fluoro-phenyl)-2-isopropyl-3,5-dioxo-2,3,4,5-tetrahydro-[1,2,4]triazine-6-carboxylic acid [4-(6,7-dimethoxy-quinolin-4-ylamino)-phenyl]-amide] | 101 to 1000 nM |
| COc1cc2nccc(Oc3ccc(NC(=O)c4cn(C(C)C)c(=O)n(-c5ccc(F)cc5)c4=O)cc3C(F)(F)F)c2cc1OC [Example 160, 3-(4-Fluoro-phenyl)-1-isopropyl-2,4-dioxo-1,2,3,4-tetrahydro-pyrimidine-5-carboxylic acid [4-(6,7-dimethoxy-quinolin-4-yloxy)-3-trifluoromethyl-phenyl]-amide] | 101 to 1000 nM |
